Consider three molecules from ChEMBL document CHEMBL3045698, “Structure and synthesis of a potent glutamate receptor antagonist in wasp venom” (Proc Natl Acad Sci U S A, 1988).

Calls of active or inactive are those of the source. The calls are words filed in the database; no cut-off is given here. A value given as a limit tells only on which side of the number the result lay.

The subject of assay [1] is Schistocerca gregaria. The assay can be described thus: Inhibition of quisqualate-sensitive glutamate receptor in Schistocerca gregaria (desert locust) muscle assessed as reduction in neurally-evoked teitch contraction of locust metathoracic retractor unguis muscle at 0.1 Hz to 0.6 Hz stimulation frequency at 25 uM.
Assay [2] has as its system Schistocerca gregaria. The assay can be described thus: Inhibition of quisqualate-sensitive glutamate receptor in Schistocerca gregaria (desert locust) muscle assessed as reduction in glutamate-evoked teitch contraction of locust metathoracic retractor unguis muscle at 0.1 Hz to 0.6 Hz stimulation frequency at 10 uM.

In the case of `CCCC(=O)N[C@@H](Cc1ccc(O)cc1)C(=O)NCCCNCCCCNCCCN`, the inhibition (usually the drop in the measured response relative to a control, in per cent) in the assay with Schistocerca gregaria [1] was “Active”.

Regarding `CCCC(=O)N[C@@H](Cc1ccc(O)cc1)C(=O)NCCCNCCCNCCCCN`, the inhibition entry in the assay on Schistocerca gregaria [1] was “Active”.

With `CCCC(=O)N[C@@H](Cc1ccc(O)cc1)C(=O)NCCCCNCCCNCCCN`, the inhibition with Schistocerca gregaria [2] is > 90%. The inhibition result in the assay on Schistocerca gregaria [1] was “Active”.
